Measurements as given in US8075916B2, “Poly(organophosphazene) hydrogels for drug delivery, preparation method thereof and use thereof” (Korea Institute of Science and Technology, priority 2007, dated 2011).

Tests used:
[1] = test system: Stomach cancer cells, SNU-601; assay: In vivo anti-cancer activity of hydrogel containing paclitaxel in nude mouse tumour model; conditions: 60 mg/kg, day 10 after administration, ten mice per group
Protocol: A nude mouse (Oriental Bio, Balb/C, female of 5-weeks old, 20 g) was used as an animal model for animal experimentation for an in vivo test. Stomach cancer cells, SNU-601 (1×10^7 cells, 0.2 ml, Korean Cell Line Bank), were injected into the dorsum of the mouse. […] 0.2 ml of the solution was injected into the cancer cells, and the change in the size of the cells was measured. […] Each test was conducted for ten (10) mice for each of the control groups and the experimental groups.

[2] = pH 7.4
[3] = biological target: T1, albumin (Bovine Serum Albumin; BSA) (Bos taurus, UniProt P02769); assay: Formation of ionic bond between additives and protein drug (polyacrylamide gel electrophoresis); assay type: binding; conditions: additive 0.02, 0.1, 1 and 2 mg/ml in 0.01% albumin solution
T1 construct: 0.01% albumin solution (Bovine Serum Albumin; BSA, Wako chemical); purchased Wako chemical
Protocol: In order to confirm the formation of an ion bond between the additives and drugs, gel electrophoresis was conducted. […] BSA, Wako chemical) at various concentrations (0.02, 0.1, 1 and 2 mg/ml) and sufficiently stirred.

T1 sequence (P02769 25-607): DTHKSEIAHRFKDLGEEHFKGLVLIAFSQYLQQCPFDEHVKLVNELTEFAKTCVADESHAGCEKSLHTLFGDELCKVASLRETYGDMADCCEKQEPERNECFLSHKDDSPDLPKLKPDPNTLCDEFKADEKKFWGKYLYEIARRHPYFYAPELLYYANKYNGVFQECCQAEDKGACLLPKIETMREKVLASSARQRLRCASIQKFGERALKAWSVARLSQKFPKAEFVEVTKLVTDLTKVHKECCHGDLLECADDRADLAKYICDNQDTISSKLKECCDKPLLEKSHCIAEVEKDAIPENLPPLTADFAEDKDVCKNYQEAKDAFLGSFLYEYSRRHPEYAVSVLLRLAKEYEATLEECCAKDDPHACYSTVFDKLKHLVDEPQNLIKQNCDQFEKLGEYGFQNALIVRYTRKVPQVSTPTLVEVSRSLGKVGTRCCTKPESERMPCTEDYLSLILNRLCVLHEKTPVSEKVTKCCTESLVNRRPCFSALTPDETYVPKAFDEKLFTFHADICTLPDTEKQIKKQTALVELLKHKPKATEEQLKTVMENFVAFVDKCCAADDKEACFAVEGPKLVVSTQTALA

Max. gelling temp. [2] [°C] | Compound | also measured
– | CC(=O)O[C@H]1C(=O)[C@@]2(C)[C@H]([C@H](OC(=O)c3ccccc3)[C@]3(O)C[C@H](OC(=O)[C@H](O)[C@@H](NC(=O)c4ccccc4)c4ccccc4)C(C)=C1C3(C)C)[C@]1(OC(C)=O)CO[C@@H]1C[C@@H]2O [paclitaxel] | mice died due to toxicity [1]: 8 mice
38 | poly[(isoleucine ethyl ester) (aminomethoxy polyethylene glycol 550)(aminoethylsuccinate)(aminoethylsuccinate ethylene hyaluronic acid)phosphazene] [Example 22] | –
37 | poly[(isoleucine ethyl ester)(aminomethoxy polyethylene glycol 550)(aminoethylsuccinate)phosphazene] [Example 18] | –
46 | poly[(isoleucine ethyl-ester)(aminomethoxy polyethylene glycol 550)(glycylleucine)phosphazene] [Example 9] | –
– | protamine | ionic bond with albumin: development on polyacrylamide gel [3]: worse development property of the gel as the concentration of the additive is higher
